Molecules are shown by their SMILES.

The target of the experiment is T1, TAS2R31 (Homo sapiens, UniProt P59538).
T1 construct: pEAK10; transient in HEK293T with chimeric G protein Galpha16gust44 (and mt-apoclytin II reporter)
T1 sequence (P59538 1-309): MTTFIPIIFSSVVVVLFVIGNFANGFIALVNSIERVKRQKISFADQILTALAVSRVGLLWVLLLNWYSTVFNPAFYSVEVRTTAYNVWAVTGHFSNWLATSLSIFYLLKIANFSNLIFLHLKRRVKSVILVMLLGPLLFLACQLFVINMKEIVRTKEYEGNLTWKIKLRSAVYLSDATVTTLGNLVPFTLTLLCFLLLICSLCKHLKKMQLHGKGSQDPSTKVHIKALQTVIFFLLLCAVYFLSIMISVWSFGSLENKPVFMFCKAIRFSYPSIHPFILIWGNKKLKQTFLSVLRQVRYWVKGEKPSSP
The experiment is described as follows: luminescence (mt-apoclytin II) Ca2+ assay, HEK293T. It is filed as cell-based.
As for `C=C(C)[C@@H]1CC=C(C)C(=O)C1` [(R)‐(‐)‐carvone], half-maximal inhibition (IC50) required 86 µM.
In the case of `CC1=CC(=O)[C@@H](C(C)C)CC1` [(R)‐(‐)‐piperitone] it was 180 ± 19 µM; in that of `CC(C)[C@@H]1CC[C@@H](C)CC1=O` [menthone], 570 ± 100 µM.
With `CC(C)[C@H]1CC[C@H](C)C[C@@H]1O` [(+)‐menthol], the IC50 came out at 220 ± 15 µM.
Consider `CC(C)=C1CC[C@@H](C)CC1=O` [(+)‐pulegone], for which the half-inhibitory concentration (IC50) came to 290 ± 47 µM.
The compound `CC(C)[C@@H]1CC[C@@H](C)C[C@H]1O` [(−)‐menthol] showed a 50% inhibitory concentration (IC50) of 310 ± 58 µM.

What is called IC50 is the midpoint of a concentration-inhibition curve. Low values mean greater potency, high ones weaker potency.
